Test results as given in ChEMBL document CHEMBL1629649, “Multiple regulatory pathways associated with high-level ciprofloxacin and multidrug resistance in Salmonella enterica serovar enteritidis: involvement of RamA and other global regulators” (2009).
In brackets after ≈: the same amount, converted by molar mass. Residues, ends and D or L forms follow the SMILES beside them. *: point of attachment. βNA = c1ccc2cc(N*)ccc2c1

What was measured:
[1] = system: Salmonella enterica subsp. enterica serovar Enteritidis; test: Inhibition of AcrAB-TolC efflux pump in Salmonella enterica serovar enteritidis isolate CUH52 assessed as fold increase in ciprofloxacin MIC relative to control
[2] = system: Salmonella enterica subsp. enterica serovar Enteritidis; test: Inhibition of AcrAB-TolC efflux pump in Salmonella enterica serovar enteritidis isolate 5408-cip assessed as fold increase in chloramphenicol MIC relative to control
[3] = system: Salmonella enterica subsp. enterica serovar Enteritidis; test: Inhibition of AcrAB-TolC efflux pump in Salmonella enterica serovar enteritidis isolate 104-cip assessed as fold increase in trimethoprim-sulfamethoxazole MIC relative to control
[4] = system: Salmonella enterica subsp. enterica serovar Enteritidis; test: Inhibition of AcrAB-TolC efflux pump in Salmonella enterica serovar enteritidis isolate 5408 assessed as fold increase in nalidixic acid MIC relative to control
[5] = system: Salmonella enterica subsp. enterica serovar Enteritidis; test: Inhibition of AcrAB-TolC efflux pump in Salmonella enterica serovar enteritidis isolate 104 assessed as fold increase in chloramphenicol MIC relative to control
[6] = system: Salmonella enterica subsp. enterica serovar Enteritidis; test: Inhibition of AcrAB-TolC efflux pump in Salmonella enterica serovar enteritidis isolate 5408-cip assessed as fold increase in tetracycline MIC relative to control
[7] = system: Salmonella enterica subsp. enterica serovar Enteritidis; test: Inhibition of AcrAB-TolC efflux pump in Salmonella enterica serovar enteritidis isolate 104-cip assessed as fold increase in ciprofloxacin MIC relative to control
[8] = system: Salmonella enterica subsp. enterica serovar Enteritidis; test: Inhibition of AcrAB-TolC efflux pump in Salmonella enterica serovar enteritidis isolate 5408-cip assessed as fold increase in nalidixic acid MIC relative to control
[9] = system: Salmonella enterica subsp. enterica serovar Enteritidis; test: Inhibition of AcrAB-TolC efflux pump in ciprofloxacin-resistant Salmonella enterica serovar enteritidis isolate CUH48 assessed as fold increase in ciprofloxacin MIC relative to control
[10] = system: Salmonella enterica subsp. enterica serovar Enteritidis; test: Inhibition of AcrAB-TolC efflux pump in Salmonella enterica serovar enteritidis isolate 104-cip assessed as fold increase in chloramphenicol MIC relative to control
[11] = system: Salmonella enterica subsp. enterica serovar Enteritidis; test: Inhibition of AcrAB-TolC efflux pump in Salmonella enterica serovar enteritidis isolate 104-cip assessed as fold increase in nalidixic acid MIC relative to control
[12] = system: Salmonella enterica subsp. enterica serovar Enteritidis; test: Inhibition of AcrAB-TolC efflux pump in Salmonella enterica serovar enteritidis isolate 104 assessed as fold increase in ampicillin MIC relative to control
[13] = system: Salmonella enterica subsp. enterica serovar Enteritidis; test: Inhibition of AcrAB-TolC efflux pump in Salmonella enterica serovar enteritidis isolate 104 assessed as fold increase in trimethoprim-sulfamethoxazole MIC relative to control
[14] = system: Salmonella enterica subsp. enterica serovar Enteritidis; test: Inhibition of AcrAB-TolC efflux pump in Salmonella enterica serovar enteritidis isolate 5408 assessed as fold increase in chloramphenicol MIC relative to control
[15] = system: Salmonella enterica subsp. enterica serovar Enteritidis; test: Inhibition of AcrAB-TolC efflux pump in Salmonella enterica serovar enteritidis isolate 4931 assessed as fold increase in nalidixic acid MIC relative to control
[16] = system: Salmonella enterica subsp. enterica serovar Enteritidis; test: Inhibition of AcrAB-TolC efflux pump in Salmonella enterica serovar enteritidis isolate CUH52 assessed as fold increase in nalidixic acid MIC relative to control
[17] = system: Salmonella enterica subsp. enterica serovar Enteritidis; test: Inhibition of AcrAB-TolC efflux pump in Salmonella enterica serovar enteritidis isolate 4931 assessed as fold increase in ciprofloxacin MIC relative to control
[18] = system: Salmonella enterica subsp. enterica serovar Enteritidis; test: Inhibition of AcrAB-TolC efflux pump in Salmonella enterica serovar enteritidis isolate NCTC 13349 assessed as fold increase in ciprofloxacin MIC relative to control
[19] = system: Salmonella enterica subsp. enterica serovar Enteritidis; test: Inhibition of AcrAB-TolC efflux pump in Salmonella enterica serovar enteritidis isolate 5408 assessed as fold increase in ciprofloxacin MIC relative to control
[20] = system: Salmonella enterica subsp. enterica serovar Enteritidis; test: Inhibition of AcrAB-TolC efflux pump in Salmonella enterica serovar enteritidis isolate 54 assessed as fold increase in ciprofloxacin MIC relative to control
[21] = system: Salmonella enterica subsp. enterica serovar Enteritidis; test: Inhibition of AcrAB-TolC efflux pump in Salmonella enterica serovar enteritidis isolate 104 assessed as fold increase in ciprofloxacin MIC relative to control
[22] = system: Salmonella enterica subsp. enterica serovar Enteritidis; test: Inhibition of AcrAB-TolC efflux pump in Salmonella enterica serovar enteritidis isolate 5408-cip assessed as fold increase in trimethoprim-sulfamethoxazole MIC relative to control
[23] = system: Salmonella enterica subsp. enterica serovar Enteritidis; test: Inhibition of AcrAB-TolC efflux pump in Salmonella enterica serovar enteritidis isolate 58 assessed as fold increase in ciprofloxacin MIC relative to controlphenylalanine-arginine-beta-naphthylamide
[24] = system: Salmonella enterica subsp. enterica serovar Enteritidis; test: Inhibition of AcrAB-TolC efflux pump in Salmonella enterica serovar enteritidis isolate NCTC 13349 assessed as fold increase in nalidixic acid MIC relative to control
[25] = system: Salmonella enterica subsp. enterica serovar Enteritidis; test: Inhibition of AcrAB-TolC efflux pump in Salmonella enterica serovar enteritidis isolate 5408-cip assessed as fold increase in ampicillin MIC relative to control
[26] = system: Salmonella enterica subsp. enterica serovar Enteritidis; test: Inhibition of AcrAB-TolC efflux pump in Salmonella enterica serovar enteritidis isolate 5408 assessed as fold increase in trimethoprim-sulfamethoxazole MIC relative to control
[27] = system: Salmonella enterica subsp. enterica serovar Enteritidis; test: Inhibition of AcrAB-TolC efflux pump in Salmonella enterica serovar enteritidis isolate 104-cip assessed as fold increase in tetracycline MIC relative to control
[28] = system: Salmonella enterica subsp. enterica serovar Enteritidis; test: Inhibition of AcrAB-TolC efflux pump in Salmonella enterica serovar enteritidis isolate 51 assessed as fold increase in nalidixic acid MIC relative to control
[29] = system: Salmonella enterica subsp. enterica serovar Enteritidis; test: Inhibition of AcrAB-TolC efflux pump in Salmonella enterica serovar enteritidis isolate 51 assessed as fold increase in ciprofloxacin MIC relative to control
[30] = system: Salmonella enterica subsp. enterica serovar Enteritidis; test: Inhibition of AcrAB-TolC efflux pump in Salmonella enterica serovar enteritidis isolate 104 assessed as fold increase in nalidixic acid MIC relative to control
[31] = system: Salmonella enterica subsp. enterica serovar Enteritidis; test: Inhibition of AcrAB-TolC efflux pump in Salmonella enterica serovar enteritidis isolate 104-cip assessed as fold increase in ampicillin MIC relative to control
[32] = system: Salmonella enterica subsp. enterica serovar Enteritidis; test: Inhibition of AcrAB-TolC efflux pump in Salmonella enterica serovar enteritidis isolate 5408-cip assessed as fold increase in ciprofloxacin MIC relative to control
[33] = system: Salmonella enterica subsp. enterica serovar Enteritidis; test: Inhibition of AcrAB-TolC efflux pump in Salmonella enterica serovar enteritidis isolate CUH60 assessed as fold increase in ciprofloxacin MIC relative to control
[34] = system: Salmonella enterica subsp. enterica serovar Enteritidis; test: Inhibition of AcrAB-TolC efflux pump in Salmonella enterica serovar enteritidis isolate 104 assessed as fold increase in tetracycline MIC relative to control
[35] = system: Salmonella enterica subsp. enterica serovar Enteritidis; test: Inhibition of AcrAB-TolC efflux pump in Salmonella enterica serovar enteritidis isolate 58 assessed as fold increase in nalidixic acid MIC relative to controlphenylalanine-arginine-beta-naphthylamide
[36] = system: Salmonella enterica subsp. enterica serovar Enteritidis; test: Inhibition of AcrAB-TolC efflux pump in Salmonella enterica serovar enteritidis isolate 54 assessed as fold increase in nalidixic acid MIC relative to control
[37] = system: Salmonella enterica subsp. enterica serovar Enteritidis; test: Inhibition of AcrAB-TolC efflux pump in ciprofloxacin-resistant Salmonella enterica serovar enteritidis isolate CUH48 assessed as fold increase in nalidixic acid MIC relative to control
[38] = system: Salmonella enterica subsp. enterica serovar Enteritidis; test: Inhibition of AcrAB-TolC efflux pump in Salmonella enterica serovar enteritidis isolate 5408 assessed as fold increase in ampicillin MIC relative to control
[39] = system: Salmonella enterica subsp. enterica serovar Enteritidis; test: Inhibition of AcrAB-TolC efflux pump in Salmonella enterica serovar enteritidis isolate 5408 assessed as fold increase in tetracycline MIC relative to control
[40] = system: Salmonella enterica subsp. enterica serovar Enteritidis; test: Inhibition of AcrAB-TolC efflux pump in Salmonella enterica serovar enteritidis isolate CUH60 assessed as fold increase in nalidixic acid MIC relative to control

## N=C(N)NCCC[C@H](NC(=O)[C@@H](N)Cc1ccccc1)C(=O)Nc1ccc2ccccc2c1 (H-Phe-Arg-βNA)
[1]
  Activity: 0.008 µg/mL
[2]
  Activity: 0.38 µg/mL
[3]
  Activity: 0.023 µg/mL
[4]
  Activity: 24 µg/mL
[5]
  Activity: 0.75 µg/mL
[6]
  Activity: 0.094 µg/mL
[7]
  Activity: 2 µg/mL
[8]
  Activity: 16 µg/mL
[9]
  MIC: 0.012 µg/mL
[10]
  Activity: 1 µg/mL
[11]
  Activity: 256 µg/mL
[12]
  Activity: 0.75 µg/mL
[13]
  Activity: 0.023 µg/mL
[14]
  Activity: 0.5 µg/mL
[15]
  Activity: 16 µg/mL
[16]
  Activity: 0.75 µg/mL
[17]
  Activity: 0.064 µg/mL
[18]
  Activity: 0.008 µg/mL
[19]
  Activity: 0.094 µg/mL
[20]
  Activity: 0.064 µg/mL
[21]
  Activity: 0.094 µg/mL
[22]
  Activity: 0.032 µg/mL
[23]
  Activity: 0.064 µg/mL
[24]
  Activity: 0.38 µg/mL
[25]
  Activity: 2 µg/mL
[26]
  Activity: 0.023 µg/mL
[27]
  Activity: 3 µg/mL
[28]
  Activity: 32 µg/mL
[29]
  Activity: 0.094 µg/mL
[30]
  Activity: 24 µg/mL
[31]
  Activity: 1 µg/mL
[32]
  Activity: 2 µg/mL
[33]
  Activity: 0.094 µg/mL
[34]
  Activity: 0.19 µg/mL
[35]
  Activity: 24 µg/mL
[36]
  Activity: 16 µg/mL
[37]
  MIC: 0.5 µg/mL (≈ 1.12 µM)
[38]
  Activity: 1 µg/mL
[39]
  Activity: 0.19 µg/mL
[40]
  Activity: 32 µg/mL
